In the OligoGym collection:
HELM strings list units from the 5' end as sugar, base in round brackets, then linkage (d deoxyribose, r ribose, m 2'-O-methyl, p phosphodiester). Strings are as the collection lists them, not checked against the first reports. ss, as = sense and antisense strand; [lna] = locked nucleic acid (LNA); [una] = unlocked nucleic acid; [hna] = hexitol nucleic acid; [s4r] = 4'-thioribose; [fl2r] = 2'-fluoro

Conditions: siRNA
Note: test system not given here.

Substance	target mRNA knockdown [%]
RNA1{r(U)p.r(A)p.r(C)p.r(C)p.r(G)p.r(A)p.r(G)p.r(A)p.r(A)p.r(U)p.r(G)p.m(A)p.r(G)p.m(C)p.r(C)p.m(U)p.r(G)p.m(A)p.r(U)p.r(T)p.r(T)}|RNA2{m(A)p.r(U)p.m(C)p.r(A)p.m(G)p.r(G)p.m(C)p.r(U)p.m(C)p.r(A)p.m(U)p.r(U)p.m(C)p.r(U)p.m(C)p.r(G)p.m(G)p.r(U)p.m(A)p.r(T)p.r(T)}$$$RNA1{StrandType:ss}|RNA2{StrandType:as}$	23
RNA1{[fl2r](G)p.r(A)p.[fl2r](C)p.r(C)p.[fl2r](A)p.r(C)p.[fl2r](G)p.r(A)p.[fl2r](A)p.r(G)p.[fl2r](A)p.r(G)p.[fl2r](U)p.r(U)p.[fl2r](A)p.r(A)p.[fl2r](C)p.r(C)p.[fl2r](C)p.r(T)p.r(T)}|RNA2{r(G)p.r(G)p.r(G)p.r(U)p.r(U)p.r(A)p.r(A)p.r(C)p.r(U)p.r(C)p.r(U)p.r(U)p.r(C)p.r(G)p.r(U)p.r(G)p.r(G)p.r(U)p.r(C)p.r(T)p.r(T)}$$$RNA1{StrandType:ss}|RNA2{StrandType:as}$	51
RNA1{r(G)p.r(U)p.r(A)p.r(U)p.r(G)p.r(A)p.r(C)p.r(C)p.r(G)p.r(A)p.r(C)p.r(U)p.r(A)p.r(C)p.r(G)p.r(C)p.r(G)p.r(U)p.r(A)p.r(T)p.r(T)}|RNA2{r(U)p.r(U)p.r(C)p.r(A)p.r(G)p.r(U)p.r(G)p.r(U)p.r(G)p.r(A)p.r(U)p.r(G)p.r(A)p.r(C)p.[una](A)p.r(C)p.r(U)p.r(U)p.r(G)p.r(T)p.r(T)}$$$RNA1{StrandType:ss}|RNA2{StrandType:as}$	86
RNA1{r(G)p.r(U)p.r(C)p.m(U)p.r(A)p.r(U)p.r(G)p.r(C)p.r(C)p.r(A)p.r(A)p.r(G)p.r(A)p.r(A)p.r(G)p.r(G)p.r(G)p.r(A)p.r(G)p.r(T)p.r(T)}|RNA2{r(C)p.r(U)p.r(C)p.r(C)p.r(C)p.r(U)p.r(U)p.r(C)p.r(U)p.r(U)p.r(G)p.r(G)p.r(C)p.r(A)p.m(U)p.r(A)p.r(G)p.r(A)p.r(C)p.r(T)p.r(T)}$$$RNA1{StrandType:ss}|RNA2{StrandType:as}$	76
RNA1{m(A)p.r(A)p.m(C)p.r(A)p.m(G)p.r(C)p.m(C)p.r(U)p.m(U)p.r(A)p.m(C)p.r(C)p.m(C)p.r(C)p.m(G)p.r(A)p.m(U)p.r(U)p.m(C)p.r(T)p.r(T)}|RNA2{r(G)p.m(A)p.m(A)p.r(U)p.r(C)p.r(G)p.r(G)p.r(G)p.r(G)p.r(U)p.m(A)p.m(A)p.r(G)p.r(G)p.r(C)p.r(U)p.r(G)p.r(U)p.r(U)p.r(T)p.r(T)}$$$RNA1{StrandType:ss}|RNA2{StrandType:as}$	32
RNA1{r(A)p.r(A)p.r(A)p.r(C)p.r(G)p.r(U)p.r(G)p.r(A)p.r(C)p.r(U)p.r(U)p.m(U)p.r(G)p.r(G)p.r(U)p.r(U)p.r(C)p.r(C)p.r(U)p.r(T)p.r(T)}|RNA2{r(A)p.r(G)p.r(G)p.r(A)p.r(A)p.r(C)p.r(C)p.r(A)p.r(A)p.r(A)p.r(G)p.r(U)p.m(C)p.r(A)p.r(C)p.r(G)p.r(U)p.r(U)p.r(U)p.r(T)p.r(T)}$$$RNA1{StrandType:ss}|RNA2{StrandType:as}$	83
RNA1{[fl2r](A)p.r(A)p.[fl2r](G)p.r(U)p.[fl2r](A)p.r(G)p.[fl2r](U)p.r(C)p.[fl2r](C)p.r(C)p.[fl2r](C)p.r(C)p.[fl2r](U)p.r(U)p.[fl2r](G)p.r(A)p.[fl2r](A)p.r(G)p.r(A)p.r(T)p.r(T)}|RNA2{r(U)p.r(C)p.r(U)p.r(U)p.r(C)p.r(A)p.r(A)p.r(G)p.r(G)p.r(G)p.r(G)p.r(G)p.r(A)p.r(C)p.r(U)p.r(A)p.r(C)p.r(U)p.r(U)p.r(T)p.r(T)}$$$RNA1{StrandType:ss}|RNA2{StrandType:as}$	53
RNA1{[hna](G)p.[hna](A)p.[hna](C)p.r(G)p.r(U)p.r(A)p.r(A)p.r(A)p.r(C)p.r(G)p.r(G)p.r(C)p.r(C)p.r(A)p.r(C)p.r(A)p.r(A)p.[hna](G)p.[hna](U)p.[hna](U)p.d(T)}|RNA2{r(A)p.[hna](C)p.r(U)p.r(U)p.r(G)p.r(U)p.r(G)p.r(G)p.[hna](C)p.r(C)p.r(G)p.r(U)p.r(U)p.r(U)p.r(A)p.r(C)p.r(G)p.[hna](U)p.[hna](C)p.[hna](G)p.d(T)}$$$RNA1{StrandType:ss}|RNA2{StrandType:as}$	35.8
RNA1{r(U)p.m(U)p.r(A)p.r(A)p.r(G)p.r(G)p.r(A)p.r(G)p.r(A)p.r(A)p.r(G)p.r(C)p.m(U)p.m(G)p.r(A)p.r(C)p.r(G)p.r(G)p.r(C)p.r(T)p.r(T)}|RNA2{r(G)p.r(C)p.r(C)p.r(G)p.r(U)p.m(C)p.r(A)p.r(G)p.r(C)p.r(U)p.r(U)p.r(C)p.r(U)p.r(C)p.r(C)p.r(U)p.m(U)p.r(A)p.r(A)p.r(T)p.r(T)}$$$RNA1{StrandType:ss}|RNA2{StrandType:as}$	82
RNA1{m(G)p.r(C)p.m(U)p.r(U)p.m(U)p.r(A)p.m(A)p.r(G)p.m(G)p.r(A)p.m(A)p.r(C)p.m(U)p.r(G)p.m(G)p.r(A)p.m(A)p.r(G)p.m(G)p.r(T)p.r(T)}|RNA2{r(C)p.m(C)p.r(U)p.m(U)p.r(C)p.m(C)p.r(A)p.m(G)p.r(U)p.m(U)p.r(C)p.r(C)p.r(U)p.r(U)p.r(A)p.r(A)p.r(A)p.r(G)p.r(C)p.r(T)p.r(T)}$$$RNA1{StrandType:ss}|RNA2{StrandType:as}$	25
RNA1{m(A)p.r(A)p.m(G)p.r(G)p.m(A)p.r(A)p.m(C)p.r(G)p.m(G)p.r(G)p.m(G)p.r(A)p.m(C)p.r(A)p.m(C)p.r(U)p.m(U)p.r(A)p.m(C)p.r(T)p.r(T)}|RNA2{r(G)p.r(U)p.r(A)p.r(A)p.r(G)p.r(U)p.r(G)p.r(U)p.r(C)p.r(C)p.r(C)p.r(C)p.r(G)p.r(U)p.r(U)p.r(C)p.r(C)p.r(U)p.r(U)p.r(T)p.r(T)}$$$RNA1{StrandType:ss}|RNA2{StrandType:as}$	12
RNA1{r(G)p.r(A)p.r(C)p.r(G)p.[hna](U)p.r(A)p.r(A)p.[hna](A)p.r(C)p.r(G)p.[hna](G)p.r(C)p.r(C)p.[hna](A)p.r(C)p.r(A)p.r(A)p.r(G)p.r(U)p.r(U)p.d(T)}|RNA2{r(A)p.r(C)p.[lna](T)p.r(U)p.r(G)p.[lna](T)p.r(G)p.r(G)p.r(C)p.r(C)p.r(G)p.r(U)p.r(U)p.[lna](T)p.r(A)p.r(C)p.r(G)p.[lna](T)p.r(C)p.[lna](G)p.[lna](C)}$$$RNA1{StrandType:ss}|RNA2{StrandType:as}$	8.9
RNA1{r(A)p.r(G)p.r(C)p.r(G)p.r(A)p.r(U)p.r(C)p.r(C)p.r(C)p.m(G)p.r(A)p.r(A)p.m(C)p.r(A)p.r(A)p.r(G)p.m(U)p.r(A)p.r(U)p.r(T)p.r(T)}|RNA2{r(A)p.m(U)p.r(A)p.r(C)p.r(U)p.m(U)p.r(G)p.r(U)p.r(U)p.r(C)p.r(G)p.r(G)p.r(G)p.r(A)p.r(U)p.r(C)p.r(G)p.r(C)p.r(U)p.r(T)p.r(T)}$$$RNA1{StrandType:ss}|RNA2{StrandType:as}$	84
RNA1{r(G)p.r(U)p.r(A)p.r(U)p.r(G)p.r(A)p.r(C)p.r(C)p.r(G)p.r(A)p.r(C)p.r(U)p.r(A)p.r(C)p.r(G)p.r(C)p.r(G)p.r(U)p.r(A)p.r(T)p.r(T)}|RNA2{r(U)p.r(U)p.r(C)p.r(A)p.r(G)p.r(U)p.r(G)p.r(U)p.r(G)p.r(A)p.r(U)p.r(G)p.r(A)p.r(C)p.r(A)p.r(C)p.r(U)p.r(U)p.[una](G)p.r(T)p.r(T)}$$$RNA1{StrandType:ss}|RNA2{StrandType:as}$	82
RNA1{r(U)p.m(U)p.r(A)p.m(C)p.r(A)p.r(A)p.r(A)p.m(G)p.m(G)p.r(A)p.r(U)p.r(C)p.r(U)p.r(C)p.r(C)p.r(U)p.r(C)p.r(C)p.r(C)p.r(T)p.r(T)}|RNA2{r(G)p.r(G)p.r(G)p.r(A)p.r(G)p.r(G)p.r(A)p.r(G)p.r(A)p.r(U)p.r(C)p.r(C)p.r(U)p.r(U)p.m(U)p.r(G)p.m(U)p.r(A)p.r(A)p.r(T)p.r(T)}$$$RNA1{StrandType:ss}|RNA2{StrandType:as}$	72
RNA1{[s4r](C)p.[s4r](G)p.r(U)p.r(A)p.r(C)p.r(G)p.r(C)p.r(G)p.r(G)p.r(A)p.r(A)p.r(U)p.r(A)p.r(C)p.r(U)p.r(U)p.r(C)p.[s4r](G)p.[s4r](A)p.r(T)p.r(T)}|RNA2{[s4r](U)p.[s4r](C)p.r(G)p.r(A)p.r(A)p.r(G)p.r(U)p.r(A)p.r(U)p.r(U)p.r(C)p.r(C)p.r(G)p.r(C)p.r(G)p.r(U)p.r(A)p.[s4r](C)p.[s4r](G)p.r(T)p.r(T)}$$$RNA1{StrandType:ss}|RNA2{StrandType:as}$	85.3
RNA1{m(A)p.r(A)p.m(A)p.r(C)p.m(G)p.r(U)p.m(G)p.r(A)p.m(C)p.r(U)p.m(U)p.r(U)p.m(G)p.r(G)p.m(U)p.r(U)p.m(C)p.r(C)p.m(U)p.r(T)p.r(T)}|RNA2{r(A)p.m(G)p.m(G)p.r(A)p.r(A)p.r(C)p.r(C)p.r(A)p.r(A)p.r(A)p.m(G)p.r(U)p.r(C)p.r(A)p.r(C)p.m(G)p.r(U)p.r(U)p.r(U)p.r(T)p.r(T)}$$$RNA1{StrandType:ss}|RNA2{StrandType:as}$	37
RNA1{m(C)p.r(U)p.m(A)p.r(C)p.m(C)p.r(U)p.m(U)p.r(C)p.m(U)p.r(C)p.m(C)p.r(U)p.m(C)p.r(U)p.m(U)p.r(C)p.m(U)p.r(C)p.m(C)p.r(T)p.r(T)}|RNA2{r(G)p.r(G)p.r(A)p.r(G)p.r(A)p.r(A)p.r(G)p.r(A)p.r(G)p.r(G)p.r(A)p.r(G)p.r(A)p.r(A)p.r(G)p.r(G)p.r(U)p.r(A)p.r(G)p.r(T)p.r(T)}$$$RNA1{StrandType:ss}|RNA2{StrandType:as}$	27
RNA1{r(C)p.r(G)p.r(U)p.r(A)p.r(C)p.r(G)p.r(C)p.r(G)p.r(G)p.r(A)p.r(A)p.r(U)p.r(A)p.r(C)p.r(U)p.r(U)p.r(C)p.[s4r](G)p.[s4r](A)p.r(T)p.r(T)}|RNA2{[s4r](U)p.[s4r](C)p.r(G)p.r(A)p.r(A)p.r(G)p.r(U)p.r(A)p.r(U)p.r(U)p.r(C)p.r(C)p.r(G)p.r(C)p.r(G)p.r(U)p.r(A)p.r(C)p.r(G)p.r(T)p.r(T)}$$$RNA1{StrandType:ss}|RNA2{StrandType:as}$	91.2
RNA1{[fl2r](C)p.r(G)p.[fl2r](A)p.r(A)p.[fl2r](A)p.r(G)p.[fl2r](U)p.r(G)p.[fl2r](U)p.r(A)p.[fl2r](U)p.r(C)p.[fl2r](C)p.r(G)p.[fl2r](A)p.r(A)p.[fl2r](G)p.r(A)p.[fl2r](C)p.r(T)p.r(T)}|RNA2{[fl2r](G)p.r(U)p.r(C)p.r(U)p.r(U)p.r(C)p.[fl2r](G)p.[fl2r](G)p.r(A)p.r(U)p.r(A)p.r(C)p.r(A)p.r(C)p.r(U)p.r(U)p.r(U)p.r(C)p.[fl2r](G)p.r(T)p.r(T)}$$$RNA1{StrandType:ss}|RNA2{StrandType:as}$	41
